According to patent US6352980B1, “Estrenes for inducting hypothalamic effects” (Pherin Pharmaceuticals, Inc., priority 1991, dated 2002):
“Also recorded” adds a separate entry of the source.

Assays:
Format in all cases: in vivo, human
[1] = test system: VNO; assay: Electro-vomeronasogram (EVG) (Example 57); conditions: for EVG response to olfactants delivered to the VNO: male and female subjects, 400 fmoles, FIG. 7B; for EVG response in female subjects: 30 female subjects (ages 20-45), FIG. 6B; for EVG response in the male VNO: male subjects, FIG. 6A and FIG. 7; for organ response (EVG data): additional tests on 13 estranes
Procedure: The following electrophysiological studies were performed in 60 clinically normal human volunteers of both sexes (30 male and 30 female) whose ages ranged from 20 to 45 years. No anesthetics were used, and female subjects were excluded if pregnant.
(§1) The stimulation and recording system consists of a “multifunctional miniprobe” described elsewhere (Monti-Bloch, L. and Grosser, B. l. (1991) “Effect of putative pheromones on the electrical activity of the human vomeronasal organ and olfactory epithelium,” J. Steroid Biochem. Molec. Biol. 39:573-582.). The recording electrode is a 0.3 mm silver ball attached to a small (0.1 mm) silver wire insulated with Teflon© the surface of the electrode is first treated to produce a silver chloride interface, and is then covered with gelatin It is positioned within a small caliber Teflon© catheter (dia=5 mm) such that the tip of the electrode protrudes approximately 2 mm. The Teflon© catheter is 10 cm in length and constitutes the terminal extension for a multichannel delivery system which delivers a continuous air stream carrying discreet pulses of chemosensory stimuli. The air stream first passes into a small chamber and is bubbled through a solution containing either a vomeropherin or an olfactant in a diluent or the diluent alone. A solenoid is used to rapidly redirect the air stream from the chamber to a route which bypasses the chamber. This creates a discreet pulse of stimulant in the air stream. A second, outer Teflon® tube with a diameter of 2 mm surrounds the catheter-electrode assemblage, and its central end is connected to an aspirator that provides continuous suction of 3 ml/s. This concentric arrangement of the outer suction tube allows the emitted chemosensory stimuli to be localized to an area we call a “minifield” (approx. dia=1 mm), and it avoids diffusion of substances either to the area outside the intended stimulation site or into the respiratory system. The entire stimulating and recording assemblage may be positioned either on the neurosensory epithelium within the VNO, or on the surface of the olfactory or respiratory epithelium.
Electro-vomeronasogram (EVG): Recordings are carried out in a quiet room with the subject supine; the multi-functional miniprobe is initially stabilized within the nasal cavity using a nasal retractor placed in the vestibule. Reference and ground electrodes consist of silver discs (8 mm), both of which are positioned on the glabella.
The entrance to the VNO, or vomeronasal pit, is identified by first dilating the nasal aperture and vestibule. A 6× magnifying binocular loupe with halogen illumination is then used to introduce the tip of the Teflon® catheter and recording electrode assemblage into the VNO opening where it is stabilized at an approximate depth of 1 mm within the vomeronasal passage. Optimal placement of the recording electrode is signaled after testing for an adequate depolarization in response to a test substance.
Electrical signals from the recording electrode are fed to a DC amplifier after which they are digitized, computer monitored, and stored. The peak-to-peak amplitude of the signals is measured, and the area under the depolarization wave is integrated, while continuously monitoring the signal both on the computer screen and on a digital oscilloscope. Artifacts produced by respiratory movements are deleted by training the subjects to practice mouth breathing with velopharyngeal closure.
(§2) Chemosensory Stimulants: Olfactory test substances are cineole, and 1-carvone; vomeropherins are A, B, C, E and F. (Vomeropherins were supplied by Pherin Corporation, Menlo Park, Calif.), Samples of vomeropherins In. concentration of 25-800 fmoles are delivered in the continuous air stream for durations from 300 milliseconds to 1 second. Usually, intervals of 3 to 5 minutes separated each series of short test pulses. […]

[2] = test system: olfactory epithelium (OE); assay: Electro-olfactgram (EOG) (Example 57); conditions: 20 subjects (10 males, 10 females); 200 fmoles vomeropherins, 400 fmoles olfactants; one second pulses; FIG. 7A
Source text: as §1, §2
(§3) Statistical Analysis: EVGs or EOGS, peak-to-peak changes and frequency changes of other parameters were measured and statistically analyzed. The significance of the results was determined by either using paired t-tests or analysis of variance (ANOVA).
Effects of Vomeropherins on the EOG: The summated receptor potential from the olfactory epithelium (OE) was recorded in 20 subjects: 10 males and 10 females. […]

[3] = test system: VNO; assay: Autonomic responses to Estrene stimulation of the VNO (Example 54); conditions: 40 male subjects, 1 second pulse
Procedure: Various autonomic parameters were monitored while 1,3,5(10),16-Estratetraen-3-yl-acetate was administered to 40 male subjects using the procedure described in Example 20. Propylene glycol was also administered as a control. The ligand was administered as a 1 second pulse. The change in autonomic function was first noted within 2 seconds and lasted for up to 45 seconds.

[4] = test system: VNO; assay: Electrodermal activity (EDA) on vomeropherin stimulation of the VNO; conditions: n=30, p<0.01; for electrodermal activity (EDA): female subjects
Procedure: (§4) Cortical evoked activity was induced by VNO stimulation with vomeropherins, and olfactory stimulation with odorants delivered in 300 ms air pulses. It was recorded using standard electroencephalographic (EEG) electrodes placed at positions Cz-A1 and Tz-A1 of the international […] system; the ground electrode was placed on the mastoid process. Electrodermal activity (EDA) was recorded using standard 8 mm silver electrodes in contact with palmar skin of the medial and ring fingers, respeCtively, through a conductive gel interface. Skin temperature (ST) was recorded by a small (1.0 mm) thermistor probe placed in the right ear lobe. Peripheral arterial pulse (PAP) was monitored with a plethysmograph attached to the tip of the index finger. Respiratory frequency (RF) was measured with an adjustable strain gauge placed around the lower thorax. All electrical signals were DC amplified, digitized (MP-100, Biopac Systems) and continuously monitored utilizing a computer.
as §3
Reflex Effects of Vomeropherins: Studies were conducted to determine the central nervous system (CNS) reflex responses to vomeropherin stimulation of the VNO. The sexually dimorphic local responses induced by vomeropherins (FIGS. 6A and B) were mirrored in the autonomic response of male & female subjects. […] In female subjects.

[5] = test system: VNO; assay: Skin temperature (ST) on vomeropherin stimulation of the VNO
Procedure: as §4, §3
In female subjects vomeropherins produced changes in EDA and ST with a greater standard deviation than in males.

[6] = test system: VNO; assay: Cortical activity (EEG) on VNO stimulation with vomeropherins; conditions: for EEG-beta activity / EEG-alpha activity: additional tests on 13 estranes of Chart 1
Procedure: as §4, §3
[…] […] Synchronization of the EEG was sustained for 1.5 to 2.7 minutes after application of a single pulse of active substance.

[7] = 30 female subjects, p<0.01 compared to A and C, FIG. 6H
[8] = females, single pulse 200 fmoles, FIG. 6F

With `C=C(C)C1CC=C(C)C(=O)C1` (centres unmarked) [1-carvone] the “EVG response to olfactants delivered to the VNO” value [1] was “only a minor local response in the VNO; also recorded: do not induce a significant EVG response” and the “EOG local response of the OE” value [2] was “strong response in both men and women; also recorded: significant (p<0.01) local response”.
`CC(=O)Oc1ccc2c(c1)CC[C@@H]1[C@@H]2CC[C@]2(C)C=CC[C@@H]12` [A, 1,3,5(10),16-Estratetraen-3-yl acetate] was tested, and the “duration of change in autonomic function” value [3] was “up to 45 seconds”, the “time at which change in autonomic function was first noted” value [3] was at most 2 s and the “integrated receptor potential in the VNO” value ([3]; compared to propylene glycol control, FIG. 4A) was “significant change”. For the same compound, the galvanic skin response ([3]; compared to propylene glycol control, FIG. 4B) was “significant change”, the skin temperature ([3]; compared to propylene glycol control, FIG. 4C) was “significant change” and the “EVG response in female subjects” value ([1]; 100 fmoles) was “small effect that was significantly different from F”. The “EVG average response (mean)” value ([1]; male subjects (ages 20 to 38), 100 fmoles, 1 second pulses, FIG. 6A) was 11.4 mV, the “skin resistance (electrodermal activity, EDA)” value ([4]; male subjects, FIG. 6C) was “decreased skin resistance” and the “skin temperature (ST)” value ([5]; 30 male subjects, p<0.01, FIG. 6G) was “significant increase in skin temperature”. For the same compound, the alpha cortical activity ([6]; males, 200 fmoles, air pulses 300 ms to 1 sec, FIG. 6E) was “significantly increased alpha cortical activity; also recorded: strongest effect”.
In the case of `C[C@@]12C=CC[C@H]1[C@@H]1CCC3=CC(=O)CC[C@]3(C)[C@H]1CC2` [B, Androsta-4,16-dien-3-one, reference compound], the “EVG response in the male VNO” value ([1]; 100 fmoles) was “significantly reduced responses”, the “EOG local response of the OE” value [2] was “only vomeropherin having significant effect in the OE; also recorded: significant (p<0.01) local response” and the “electrodermal activity (EDA)” value [4] was “greater decrease in EDA than A or C”. For the same compound, the “skin temperature (ST)” value [5, 7] was “significant increase in skin temperature” and the alpha cortical activity [6, 8] was “increased alpha cortical”.
With `C[C@@]12C=CC[C@H]1[C@@H]1CCC3=CC(=O)CC[C@]3(O)[C@H]1CC2` [E7/N1, 10-HYDROXYESTRA-4,16-DIEN-3-ONE] the “organ response (EVG data)” value ([1]; men, FIG. 21A) was “excellent organ response”, the “organ response (EVG data)” value ([1]; women, FIG. 20A) was “excellent organ response” and the EEG-beta activity ([6]; men, FIGS. 22-34 A) was “high EEG-betain men”. The EEG-alpha activity ([6]; women, FIGS. 22-34 B) was “best EEG-alpha activity in women; also recorded: high EEG-alpha in women”.
`COC1=CCC2=C(CC[C@@H]3[C@@H]2CC[C@]2(C)C=CC[C@@H]32)C1` [E8/N1, 3-METHOXYESTRA-2,5(10),16-TRIENE] was tested, and the EEG-beta activity ([6]; men, FIGS. 22-34 A) was “best EEG-beta activity in men”.
`C[C@@]12C=CC[C@H]1[C@@H]1C[C@@H](O)c3cc(O)ccc3[C@H]1CC2` [E12/N1, ESTRA-1,3,5(10),16-TETRAEN-3,6β-DIOL] was tested, and the EEG-alpha activity ([6]; men, FIGS. 22-34 A) was “best EEG-alpha activity in men”.
For `C[C@@]12C=CC[C@H]1[C@@H]1CCC3=C[C@H](O)CC[C@]3(C)[C@H]1CC2` [E, Androsta-4,16-dien-3α-ol], the “EVG response in female subjects” value ([1]; 100 fmoles) was “does not stimulate the VNO in female subjects” and the “EOG local response of the OE” value [2] was “stronger olfactory effect than does F; also recorded: significant (p<0.01) local response”.
With `C[C@@]12C=CC[C@H]1[C@@H]1CCC3=C[C@@H](O)CC[C@]3(C)[C@H]1CC2` [F, Androsta-4,16-dien-3β-ol, reference compound] the “EVG response in female subjects” value ([1]; 100 fmoles) was “produced the most significant differences within the group”, the “EVG response in the male VNO” value ([1]; 100 fmoles) was “significantly reduced responses” and the “electrodermal activity (EDA)” value [4] was “greater decrease in EDA than A or C”. For the same compound, the “skin temperature (ST)” value [5, 7] was “significant increase in skin temperature” and the alpha cortical activity [6, 8] was “increased alpha cortical”.
`CC12CCC(CC1)C(C)(C)O2` [cineole] was tested, and the “EVG response to olfactants delivered to the VNO” value [1] was “only a minor local response in the VNO; also recorded: do not induce a significant EVG response” and the “EOG local response of the OE” value [2] was “strong response in both men and women; also recorded: significant (p<0.01) local response”.
